Reference: article PMC12197660 (Viruses, 2025)
Values after ≈ are worked out from the molar mass of the structure shown. Where two headings read alike, the source gives them in different places.

Experiments:
CES-1 = target: T1, CES-1 (Homo sapiens, UniProt P23141); test: Enzyme hydrolysis phenotype, fraction metabolized by CES-1; type: in vitro ADME
T1 sequence (P23141 18-567): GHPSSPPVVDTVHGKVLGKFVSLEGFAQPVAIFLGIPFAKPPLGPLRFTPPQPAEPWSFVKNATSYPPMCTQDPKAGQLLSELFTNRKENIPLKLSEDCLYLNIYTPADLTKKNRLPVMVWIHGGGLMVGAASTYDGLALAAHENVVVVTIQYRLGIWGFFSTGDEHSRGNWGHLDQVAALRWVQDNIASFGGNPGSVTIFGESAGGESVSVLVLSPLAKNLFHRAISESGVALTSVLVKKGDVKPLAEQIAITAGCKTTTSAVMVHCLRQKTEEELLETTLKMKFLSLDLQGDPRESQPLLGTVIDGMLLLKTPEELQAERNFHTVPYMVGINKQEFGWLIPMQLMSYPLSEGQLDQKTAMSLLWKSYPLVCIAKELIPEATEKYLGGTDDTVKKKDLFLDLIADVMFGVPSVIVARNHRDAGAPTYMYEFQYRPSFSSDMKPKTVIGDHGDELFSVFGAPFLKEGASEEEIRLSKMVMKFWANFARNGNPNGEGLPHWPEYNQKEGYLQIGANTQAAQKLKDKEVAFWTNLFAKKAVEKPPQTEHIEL

[1] = cynomolgus monkey, in vivo, iv, 10 mg/kg, 24 h
[2] = Plasma stability, human plasma; type: in vitro ADME; settings: human, plasma
plasma protein = test: Plasma protein binding; type: in vitro ADME, mouse, rat, dog, monkey, and human; settings: plasma
[3] = Permeability (MDCK A-to-B); type: in vitro ADME, canine; settings: dog, MDCK-MDR1, pH 7.4
[4] = in vivo, cyno; cited from earlier work
CatA = target: T2, CatA (Homo sapiens, UniProt P10619); test: Enzyme hydrolysis phenotype, fraction metabolized by CatA; type: in vitro ADME
T2 sequence (P10619 29-480): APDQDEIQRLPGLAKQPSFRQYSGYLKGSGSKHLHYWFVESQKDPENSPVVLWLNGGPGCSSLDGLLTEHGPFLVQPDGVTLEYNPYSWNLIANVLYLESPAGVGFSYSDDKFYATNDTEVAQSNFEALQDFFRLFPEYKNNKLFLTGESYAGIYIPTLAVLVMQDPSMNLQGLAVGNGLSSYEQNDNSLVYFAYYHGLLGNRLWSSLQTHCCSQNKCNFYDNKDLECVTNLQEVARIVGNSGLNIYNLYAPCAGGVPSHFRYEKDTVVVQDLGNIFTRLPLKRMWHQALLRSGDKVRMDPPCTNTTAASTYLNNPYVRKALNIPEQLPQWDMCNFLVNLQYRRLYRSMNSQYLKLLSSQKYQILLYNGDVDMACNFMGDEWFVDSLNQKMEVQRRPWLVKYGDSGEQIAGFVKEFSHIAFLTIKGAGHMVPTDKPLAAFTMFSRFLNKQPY

in vivo = type: in vivo, cynomolgus monkeys; settings: cynomolgus monkey, in vivo, iv, 10 mg/kg
[5] = system: OATP1B1/3, P-gp, BCRP, ENT1/2, CNT3; test: Transporter substrate assessment; type: in vitro ADME, human; settings: human
[6] = cited from earlier work
[7] = Plasma stability (Table 1, across species); type: in vitro ADME, mouse, rat, dog, monkey, and human
Solubility (PBS) = type: physicochemical; settings: aqueous buffer
[8] = system: OATP1B1/3, P-gp, BCRP, ENT1/2, CNT3; settings: cited from earlier work
LogD = type: physicochemical
[9] = Plasma stability, cynomolgus monkey plasma; type: in vitro ADME; settings: cynomolgus monkey, plasma
[10] = Radiolabeled metabolism and excretion in rats; type: in vivo; settings: male, Sprague Dawley, rat, in vivo, iv
[11] = Hepatic S9 fraction stability; type: in vitro ADME, rat, dog, monkey, and human
[12] = in vivo, iv; cited from earlier work

CCC(CC)COC(=O)[C@H](C)N[P@](=O)(OC[C@H]1O[C@@](C#N)(c2ccc3c(N)ncnn23)[C@H](O)[C@@H]1O)Oc1ccccc1 [RDV, remdesivir, reference compound]
Enzyme hydrolysis phenotype (fm), CES-1 (CES-1): 80% | Lung GS-443902 C24h [1]: 1.39 ± 0.15 nmol/g | PBMC GS-443902 C24h [1]: 31.0 ± 11.8 µM | half-life at 2 µM [2]: 1.3 h | Predicted human hepatic extraction: > 0.9 | Plasma protein binding (% free) (plasma protein): 6–14 % free | Papp A→B at 120 min [3]: 1.32 ×10⁻⁶ cm/s | Oral bioavailability [4]: < 1% | Enzyme hydrolysis phenotype (fm), CatA (CatA): 10% | Vd (in vivo): 0.504 ± 0.175 L/kg | clearance (in vivo): 40 mL/min/kg | Transporter substrate [5]: OATP1B1/P-gp | Stability in hepatic S9 [6]: unstable | Plasma stability [7]: Moderately Stable (unstable in mouse, rat) | solubility (Solubility (PBS)): 40.1 µg/mL (≈ 66.5 µM) | Transporter substrate (text) [8]: substrate for both OATP1B1 and P-gp | logD (LogD): 2.5 | half-life at 2 µM [9]: 6.42 h | Fecal excretion, of administered dose [10]: approximately 25% | Total mean [14C] dose recovery [10]: greater than 90% | Urinary excretion, mean [10]: 61% | S9 Stability, Hepatic [11]: Unstable | Fecal excretion, of administered dose [12]: ~18% | Total mean [14C] dose recovery [12]: greater than 90% | Urinary excretion, mean [12]: 74%
